Data from ChEMBL document CHEMBL2029257, “Copper-Free Click for PET: Rapid 1,3-Dipolar Cycloadditions with a Fluorine-18 Cyclooctyne” (ACS Med Chem Lett, 2011).

Tests used:
Assay type in all cases: ADME, cell-free
[1] = Metabolic stability in Sprague-Dawley rat serum assessed as compound remaining at 2 MBq at 1 hr by RP-HPLC analysis; conditions: read-out: Stability
[2] = system: Serum; test: (§1) Metabolic stability in Sprague-Dawley rat serum assessed as compound remaining at 2 MBq at 2 hrs by RP-HPLC analysis; conditions: 2 h
[3] = as §1; conditions: Sprague-Dawley, read-out: Stability

SMILES	remaining at 1 h, 2 MBq [1]	Stability [2]	remaining at 2 h, 2 MBq [3]
O=C(NCCCCCC(=O)N1Cc2ccccc2C#Cc2ccccc21)c1ccc([18F])cc1	> 98%	Stable	–
O=C(O)COCC(=O)NCCOCCOCCOCCOCCOCCOCCOCCOCCn1nnc2c1-c1ccccc1CN(C(=O)CCCCCNC(=O)c1ccc([18F])cc1)c1ccccc1-2	> 98%	–	96.8%
